For series [1] the following is noted: pH 7.
The subject of series [2] is trypsin. The series can be described thus: in vitro. The following applies: isolated enzyme trypsin, pH 8.5.

Structures are written as SMILES.

Consider `CC[C@H](C)[C@H](NC(=O)[C@H](CC(C)C)NC(=O)[C@H](Cc1ccccc1)NC(=O)[C@H](CCC(N)=O)NC(=O)[C@H](CC(C)C)NC(=O)[C@H](CCCCN)NC(=O)CNC(=O)[C@H](Cc1ccc(O)cc1)NC(=O)[C@@H]1CCCN1C(=O)[C@@H](NC(=O)[C@@H]1CCCN1C(=O)[C@H](Cc1ccc(O)cc1)NC(=O)CNC(=O)[C@H](CCCCN)NC(=O)[C@H](Cc1c[nH]c2ccccc12)NC(=O)[C@@H]1CCCN1C(=O)CN)[C@@H](C)CC)C(=O)N[C@@H](CCCCN)C(=O)N[C@@H](CCCCN)C(=O)N[C@@H](CC(C)C)C(=O)N[C@@H](CCCCN)C(=O)N[C@@H](CCC(N)=O)C(=O)N[C@@H](CC(C)C)C(=O)N[C@@H](CCCCN)C(=O)N[C@H](C(N)=O)C(C)C` [Peptide M49dN], for which, in series [1], the “α-helical structure / structural stability by CD” value is “no α-helical structure”. In series [2], the half-life stood at 5 ± 0.3 min.

Take `CC[C@H](C)[C@H](NC(=O)[C@H](CC(C)C)NC(=O)[C@H](Cc1ccccc1)NC(=O)[C@H](CCC(N)=O)NC(=O)[C@H](CC(C)C)NC(=O)[C@H](CCCCN)NC(=O)CNC(=O)[C@H](Cc1ccc(O)cc1)NC(=O)[C@@H]1CCCN1C(=O)[C@@H](NC(=O)[C@@H]1CCCN1C(=O)[C@H](Cc1ccc(O)cc1)NC(=O)CNC(=O)[C@H](CCCCN)NC(=O)[C@H](Cc1c[nH]c2ccccc12)NC(=O)[C@@H]1CCCN1C(=O)CNC(=O)[C@H](CCC(=O)O)NC(=O)[C@H](CC(C)C)NC(=O)[C@H](C)NC(=O)[C@H](C)NC(=O)[C@H](CC(C)C)NC(=O)[C@H](CCC(=O)O)NC(=O)[C@H](C)NC(=O)[C@H](CCC(=O)O)NC(=O)[C@H](CC(C)C)NC(=O)[C@H](C)NC(=O)[C@H](C)NC(=O)[C@H](CC(C)C)NC(=O)[C@H](CCC(=O)O)NC(=O)[C@H](C)N)[C@@H](C)CC)C(=O)N[C@@H](CCCCN)C(=O)N[C@@H](CCCCN)C(=O)N[C@@H](CC(C)C)C(=O)N[C@@H](CCCCN)C(=O)N[C@@H](CCC(N)=O)C(=O)N[C@@H](CC(C)C)C(=O)N[C@@H](CCCCN)C(=O)N[C@H](C(N)=O)C(C)C` [Peptide M49dS]: the “α-helical structure / structural stability by CD” value in series [1] is “mostly denatured at 80 °C”. In addition, the half-life in series [2] was found to be 39 ± 2 min.

Usually half-life stands for the time needed for the level to fall by half in the phase considered. Read a low half-life as rapid decline.
